From ChEMBL document CHEMBL1151237, “Chamuvarinin, an acetogenin bearing a tetrahydropyran ring from the roots of Uvaria chamae” (J Nat Prod, 2004)

Experiment: Cytotoxicity against human KB3-1 cells by colorimetric assay
Format: functional, cell-based
Conditions: KB 3-1

Structure (SMILES)	IC50
CCCCCCC1CCCC(C2CCC([C@H]3CC[C@H]([C@H](O)CCCCCCCCCCCCC4=C[C@H](C)OC4=O)O3)O2)O1 (some centres not stated) [CHAMUVARININ]	800 pM
CCCCCC[C@H](O)CCC[C@H](O)[C@H]1CC[C@H]([C@H]2CC[C@H]([C@H](O)CCCCCCCCCCCCC3=C[C@H](C)OC3=O)O2)O1 [SQUAMOCIN]	3 pM
